Each compound was assayed against T1, CIB1 and αIIb interaction (CIB1-GST : F-αIIb peptide) (Homo sapiens, UniProt Q99828) (assay: FP assay, 1536-well qHTS format (primary and confirmatory screen)). Settings: Table S3, confirmatory screen, YES/NO call.
T1 construct: made in house; host or cells: BL-21 plus RIL cells (E. coli)
T1 sequence (Q99828 1-191): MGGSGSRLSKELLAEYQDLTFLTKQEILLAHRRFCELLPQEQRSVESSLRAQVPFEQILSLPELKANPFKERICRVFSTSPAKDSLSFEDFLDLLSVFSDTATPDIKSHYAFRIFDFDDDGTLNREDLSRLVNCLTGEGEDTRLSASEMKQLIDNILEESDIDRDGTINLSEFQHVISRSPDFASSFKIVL
Format: binding

Compound | Confirm? (confirmatory screen)
O=C(O)C(F)(F)F.O=C(O)c1ccc(Cc2c(-c3cccc(-c4ccccc4)c3)nn(-c3nc(C(=O)O)cs3)c2O)cc1 [NCGC00356639-01] | YES
COc1ccccc1Nc1ccc2c(O)cc(S(=O)(=O)O)cc2c1.O=C(O)C(F)(F)F [NCGC00372954-01] | YES
C=C1C(=O)OC2C(OC(=O)C=C(C)C)C(C)=C3C(=O)C=C(C)C3C(O)C12 (stereo not shown) [NCGC00380563-01] | YES

Now from value to compound:

Confirm? (confirmatory screen) | Compound
YES | CC(=O)c1c(O)cc2cccc3c2c1CC(C)(O)O3 (stereo not shown) [NCGC00381142-01]
YES | COc1ccc2nc3[nH]nc(C)c3c(NCCOCCO)c2c1 [NCGC00384193-04]

Same assay, conditions: Table S3, confirmatory screen, qHTS curve class; a negative sign marks inhibitory curves

Compound | Curve Class (confirmatory screen)
O=C(O)C(F)(F)F.O=C(O)c1ccc(Cc2c(-c3cccc(-c4ccccc4)c3)nn(-c3nc(C(=O)O)cs3)c2O)cc1 [NCGC00356639-01] | -2.2
COc1ccccc1Nc1ccc2c(O)cc(S(=O)(=O)O)cc2c1.O=C(O)C(F)(F)F [NCGC00372954-01] | -2.1
C=C1C(=O)OC2C(OC(=O)C=C(C)C)C(C)=C3C(=O)C=C(C)C3C(O)C12 (stereo not shown) [NCGC00380563-01] | -1.2

Further lines, results first:

Curve Class (confirmatory screen) | Compound
-2.2 | CC(=O)c1c(O)cc2cccc3c2c1CC(C)(O)O3 (stereo not shown) [NCGC00381142-01]
-2.2 | COc1ccc2nc3[nH]nc(C)c3c(NCCOCCO)c2c1 [NCGC00384193-04]

Same assay, conditions: Table S3, confirmatory screen; negative = inhibition

Compound | Efficacy (%) (confirmatory screen)
O=C(O)C(F)(F)F.O=C(O)c1ccc(Cc2c(-c3cccc(-c4ccccc4)c3)nn(-c3nc(C(=O)O)cs3)c2O)cc1 [NCGC00356639-01] | -79
COc1ccccc1Nc1ccc2c(O)cc(S(=O)(=O)O)cc2c1.O=C(O)C(F)(F)F [NCGC00372954-01] | -93
C=C1C(=O)OC2C(OC(=O)C=C(C)C)C(C)=C3C(=O)C=C(C)C3C(O)C12 (stereo not shown) [NCGC00380563-01] | -43

Other lines, results leading:

Efficacy (%) (confirmatory screen) | Compound
-84 | CC(=O)c1c(O)cc2cccc3c2c1CC(C)(O)O3 (stereo not shown) [NCGC00381142-01]
-47 | COc1ccc2nc3[nH]nc(C)c3c(NCCOCCO)c2c1 [NCGC00384193-04]

Same assay, conditions: Table S3, confirmatory screen; read-out: IC50 [μM] (confirmatory screen)

Compound | IC50 [µM]
O=C(O)C(F)(F)F.O=C(O)c1ccc(Cc2c(-c3cccc(-c4ccccc4)c3)nn(-c3nc(C(=O)O)cs3)c2O)cc1 [NCGC00356639-01] | 50.1
COc1ccccc1Nc1ccc2c(O)cc(S(=O)(=O)O)cc2c1.O=C(O)C(F)(F)F [NCGC00372954-01] | 25.1
C=C1C(=O)OC2C(OC(=O)C=C(C)C)C(C)=C3C(=O)C=C(C)C3C(O)C12 (stereo not shown) [NCGC00380563-01] | 2
CC(=O)c1c(O)cc2cccc3c2c1CC(C)(O)O3 (stereo not shown) [NCGC00381142-01] | 39.8

Same assay, conditions: qHTS FP screen hits, Table S2; negative = inhibition

Compound | Efficacy (%)
COc1ccccc1Nc1ccc2c(O)cc(S(=O)(=O)O)cc2c1.O=C(O)C(F)(F)F [NCGC00372954-01] | -41
C=C1C(=O)OC2C(OC(=O)C=C(C)C)C(C)=C3C(=O)C=C(C)C3C(O)C12 (stereo not shown) [NCGC00380563-01] | -32

Next, values leading:

Efficacy (%) | Compound
-51 | CC(=O)c1c(O)cc2cccc3c2c1CC(C)(O)O3 (stereo not shown) [NCGC00381142-01]
-75 | COc1ccc2nc3[nH]nc(C)c3c(NCCOCCO)c2c1 [NCGC00384193-04]

Same assay, conditions: qHTS FP screen hits, Table S2; one class per curve where COUNT > 1; negative sign = inhibitory curve

Compound | Curve Class
COc1ccccc1Nc1ccc2c(O)cc(S(=O)(=O)O)cc2c1.O=C(O)C(F)(F)F [NCGC00372954-01] | -2.2
C=C1C(=O)OC2C(OC(=O)C=C(C)C)C(C)=C3C(=O)C=C(C)C3C(O)C12 (stereo not shown) [NCGC00380563-01] | -1.2

The next lines start with the values.

Curve Class | Compound
-2.2 | CC(=O)c1c(O)cc2cccc3c2c1CC(C)(O)O3 (stereo not shown) [NCGC00381142-01]
-2.2 | COc1ccc2nc3[nH]nc(C)c3c(NCCOCCO)c2c1 [NCGC00384193-04]

Same assay, conditions: qHTS FP screen hits, Table S2; read-out: IC50

Compound | IC50 [µM]
COc1ccccc1Nc1ccc2c(O)cc(S(=O)(=O)O)cc2c1.O=C(O)C(F)(F)F [NCGC00372954-01] | 35.5
C=C1C(=O)OC2C(OC(=O)C=C(C)C)C(C)=C3C(=O)C=C(C)C3C(O)C12 (stereo not shown) [NCGC00380563-01] | 2.5

Further lines, results first:

IC50 [µM] | Compound
50.1 | CC(=O)c1c(O)cc2cccc3c2c1CC(C)(O)O3 (stereo not shown) [NCGC00381142-01]
50.1 | COc1ccc2nc3[nH]nc(C)c3c(NCCOCCO)c2c1 [NCGC00384193-04]

Same assay, conditions: qHTS primary screen hits, Table S2; negative = inhibition

Compound | Efficacy (%)
O=C(O)C(F)(F)F.O=C(O)c1ccc(Cc2c(-c3cccc(-c4ccccc4)c3)nn(-c3nc(C(=O)O)cs3)c2O)cc1 [NCGC00356639-01] | -39

Same assay, conditions: qHTS primary screen hits, Table S2; negative sign = inhibitory curve; several classes where COUNT > 1

Compound | Curve Class
O=C(O)C(F)(F)F.O=C(O)c1ccc(Cc2c(-c3cccc(-c4ccccc4)c3)nn(-c3nc(C(=O)O)cs3)c2O)cc1 [NCGC00356639-01] | -2.2

Same assay, conditions: qHTS primary screen hits, Table S2; read-out: IC50

Compound | IC50 [µM]
O=C(O)C(F)(F)F.O=C(O)c1ccc(Cc2c(-c3cccc(-c4ccccc4)c3)nn(-c3nc(C(=O)O)cs3)c2O)cc1 [NCGC00356639-01] | 39.8

The compounds below were run against T2, GST-CIB1 : F-scrambled peptide (Homo sapiens, UniProt Q99828) (assay: FP scrambled-peptide counter screen, 1536-well format). Settings: Table S3, counterscreen, qHTS curve class; a negative sign marks inhibitory curves.
T2 construct: made in house; host or cells: BL-21 plus RIL cells (E. coli)
T2 sequence (Q99828 1-191): T1 sequence (Q99828 1-191)
Format: binding

Compound | Curve Class (counterscreen)
O=C(O)C(F)(F)F.O=C(O)c1ccc(Cc2c(-c3cccc(-c4ccccc4)c3)nn(-c3nc(C(=O)O)cs3)c2O)cc1 [NCGC00356639-01] | -2.1
COc1ccccc1Nc1ccc2c(O)cc(S(=O)(=O)O)cc2c1.O=C(O)C(F)(F)F [NCGC00372954-01] | -2.4
C=C1C(=O)OC2C(OC(=O)C=C(C)C)C(C)=C3C(=O)C=C(C)C3C(O)C12 (stereo not shown) [NCGC00380563-01] | -1.2

The next lines start with the values.

Curve Class (counterscreen) | Compound
-2.1 | CC(=O)c1c(O)cc2cccc3c2c1CC(C)(O)O3 (stereo not shown) [NCGC00381142-01]
-2.2 | COc1ccc2nc3[nH]nc(C)c3c(NCCOCCO)c2c1 [NCGC00384193-04]

Same assay, conditions: Table S3, counterscreen; negative = inhibition

Compound | Efficacy (%) (counterscreen)
O=C(O)C(F)(F)F.O=C(O)c1ccc(Cc2c(-c3cccc(-c4ccccc4)c3)nn(-c3nc(C(=O)O)cs3)c2O)cc1 [NCGC00356639-01] | -99
COc1ccccc1Nc1ccc2c(O)cc(S(=O)(=O)O)cc2c1.O=C(O)C(F)(F)F [NCGC00372954-01] | -89
C=C1C(=O)OC2C(OC(=O)C=C(C)C)C(C)=C3C(=O)C=C(C)C3C(O)C12 (stereo not shown) [NCGC00380563-01] | -47

The remaining lines, values ahead:

Efficacy (%) (counterscreen) | Compound
-99 | CC(=O)c1c(O)cc2cccc3c2c1CC(C)(O)O3 (stereo not shown) [NCGC00381142-01]
-75 | COc1ccc2nc3[nH]nc(C)c3c(NCCOCCO)c2c1 [NCGC00384193-04]

Same assay, conditions: Table S3, counterscreen; read-out: IC50 [μM] (counterscreen)

Compound | IC50 [µM]
O=C(O)C(F)(F)F.O=C(O)c1ccc(Cc2c(-c3cccc(-c4ccccc4)c3)nn(-c3nc(C(=O)O)cs3)c2O)cc1 [NCGC00356639-01] | 39.8
COc1ccccc1Nc1ccc2c(O)cc(S(=O)(=O)O)cc2c1.O=C(O)C(F)(F)F [NCGC00372954-01] | 22.4
C=C1C(=O)OC2C(OC(=O)C=C(C)C)C(C)=C3C(=O)C=C(C)C3C(O)C12 (stereo not shown) [NCGC00380563-01] | 2.2

The next lines start with the values.

IC50 [µM] | Compound
39.8 | CC(=O)c1c(O)cc2cccc3c2c1CC(C)(O)O3 (stereo not shown) [NCGC00381142-01]
89.1 | COc1ccc2nc3[nH]nc(C)c3c(NCCOCCO)c2c1 [NCGC00384193-04]
